# Measured values from patent US20260274833A1 (NiKang Therapeutics, Inc., priority 2022, published 2026).
# Target: T1, CDK2 (Homo sapiens, UniProt P24941)
# T1 construct: endogenous in cells; host or cells: OVCAR3 cells
# Experiment: Phospho-RB measurement in OVCAR3 cells (HTRF phospho-RB cellular kit)
# Format: cell-based
# Conditions: inhibition of RB phosphorylation at S807/811 (HTRF, TR-FRET ratio 665/620), 24 h compound treatment, 0.3 to 10,000 nM
# Method: Biological Example 1: Phospho-RB Measurement in OVCAR3 Cells
# The ability of compounds of Formula (I) to inhibit CDK2 was determined in OVCAR3 cells by measuring inhibition of phosphorylation of RB protein at S780 and S807/811. Phosphorylation of RB protein at S807/811 were measured using HTRF phospho-RB cellular kits (Cat #64RBS807PEG) from Cisbio.
# On Day 1, OVCAR3 cells were seeded into 96-well tissue-culture treated plates at 20,000 cells/well in 200 μL and incubated overnight at 37° C. in CO2 atmosphere. On Day 2, the cells were treated with test compounds at concentrations from 0.3 to 10,000 nM using HP D300 digital dispenser. Twenty-four hours after compound treatment, cell culture media was removed by flicking the plate and tapping the plate against clean paper towel. Immediately 30 μL 1× lysis buffer was supplemented from the kit and the plate was incubated at room temperature on shaker for 30 min. After homogenization by pipetting up and down, 8 μL cell lysate from 96-well cell culture plate was transferred to 384-well small volume white detection plate. 2 μL premixed detection solution was added and the plate was covered with sealer. To prepare the detection solution, d2 conjugated-phospho-RB antibody and Eu-cryptate conjugated phosphor-RB antibody were diluted into detection buffer following manufacturer's instruction.
# Detection plates were incubated for 4 h at room temperature and read on ClarioStar (BMG Labtech) in TR-FRET mode ([…]). The TR-FRET ratio (665 nM/620 nM) was plotted against the compound concentration and normalized to DMSO controls. Half maximal inhibition concentration (IC50) values are calculated with a four-parameter logistic fit using GraphPad Prism (version 8; La Jolla, CA).
row,Structure (SMILES),IC50 [µM]
1,"O=S1(=O)CC2(CC(Nc3nccc(-c4sc(N5C6CCC5CN(CC(F)(F)F)C6)nc4-c4cccc(NS(=O)(=O)N5Cc6cccc(C(F)(F)F)c6C5)c4F)n3)C2)C1 [Example 40, N-(3-(5-(2-((2,2-dioxido-2-thiaspiro-[3.3]-heptan-6-yl)amino)pyrimidin-4-yl)-2-(3-(2,2,2-trifluoroethyl)-3,8-diazabicyclo[3.2.1]-octan-8-yl)thiazol-4-yl)-2-fluorophenyl)-4-(trifluoromethyl)-isoindoline-2-sulfonamide]",0.192
2,O=S1(=O)CC2(CC(Nc3nccc(-c4sc(N5C6CCC5CN(CC(F)(F)F)C6)nc4-c4cccc(NS(=O)(=O)N5Cc6cccc(C(F)F)c6C5)c4F)n3)C2)C1 [Example 49],0.137
3,"O=S1(=O)CC2(CC(Nc3nccc(-c4sc(N5C6CCC5CN(C5CC(F)(F)C5)C6)nc4-c4cccc(NS(=O)(=O)N5CCc6ccc(Cl)cc65)c4F)n3)C2)C1 [Example 51, 6-chloro-N-(3-(2-(3-(3,3-difluoro-cyclobutyl)-3,8-diazabicyclo [3.2.1]octan-8-yl)-5-(2-((2,2-dioxido-2-thiaspiro-[3.3]heptan-6-yl)amino)-pyrimidin-4-yl)thiazol-4-yl)-2-fluorophenyl)-indoline-1-sulfonamide]",0.336
4,"O=S1(=O)CC2(CC(Nc3nccc(-c4sc(N5C6CCC5CN(C5CC(F)(F)C5)C6)nc4-c4cccc(NS(=O)(=O)N5Cc6cccc(C(F)F)c6C5)c4F)n3)C2)C1 [Example 52, N-(3-(2-(3-(3,3-difluorocyclobutyl)-3,8-diazabicyclo [3.2.1]octan-8-yl)-5-(2-((2,2-dioxido-2-thiaspiro[3.3]heptan-6-yl)amino)-pyrimidin-4-yl)thiazol-4-yl)-2-fluorophenyl)-4-(difluoromethyl)-isoindoline-2-sulfonamide]",0.16
5,CS(=O)(=O)[C@H]1CC[C@H](Nc2nccc(-c3sc(C45CC(C(F)(F)F)(C4)C5)nc3-c3cccc(NS(=O)(=O)N4CCc5ccccc54)c3F)n2)CC1 [Example 53],0.262
6,"CS(=O)(=O)[C@H]1CC[C@H](Nc2nccc(-c3sc(C45CC(C(F)(F)F)(C4)C5)nc3-c3cccc(NS(=O)(=O)N4CCc5ccc(C(F)(F)F)cc54)c3F)n2)CC1 [Example 55, N-(2-fluoro-3-(5-(2-(((1r, 4r)-4-(methylsulfonyl)cyclohexyl)amino)pyrimidin-4-yl)-2-(3-(trifluoromethyl)bicyclo-[1.1.1]-pentan-1-yl)thiazol-4-yl)phenyl)-6-(trifluoromethyl) indoline-1-sulfonamide]",0.525
7,"CS(=O)(=O)[C@H]1CC[C@H](Nc2nccc(-c3sc(C45CC(C(F)(F)F)(C4)C5)nc3-c3cccc(NS(=O)(=O)N4Cc5ccccc5C4)c3F)n2)CC1 [Example 57, N-(2-fluoro-3-(5-(2-(((1r,4r)-4-(methylsulfonyl)cyclohexyl)amino)-pyrimidin-4-yl)-2-(3-(trifluoromethyl)-bicyclo[1.1.1]-pentan-1-yl)thiazol-4-yl)phenyl) isoindoline-2-sulfonamide]",0.494
8,"CS(=O)(=O)C1CCC(Nc2nccc(-c3sc(C45CC(C(F)(F)F)(C4)C5)nc3-c3cccc(NS(=O)(=O)N4Cc5cccc(C(F)F)c5C4)c3F)n2)CC1 (centres unmarked) [Example 58, 4-(difluoromethyl)-N-(2-fluoro-3-(5-(2-(((1r,4r)-4-(methylsulfonyl)cyclohexyl)-amino)pyrimidin-4-yl)-2-(3-(trifluoromethyl)-bicyclo[1.1.1]pentan-1-yl)thiazol-4-yl)phenyl)-isoindoline-2-sulfonamide]",0.285
9,"CC1CCCN(S(=O)(=O)Nc2cccc(-c3nc(C(C)(C)C)sc3-c3ccnc(NC4CCN(S(C)(=O)=O)CC4)n3)c2F)C1 (centres unmarked) [Example 62, N-(3-(2-(tert-butyl)-5-(2-((1-(methylsulfonyl)-piperidin-4-yl)amino)-pyrimidin-4-yl)thiazol-4-yl)-2-fluoro-phenyl)-3-methylpiperidine-1-sulfonamide]",3.17

# Continued, values first:
row,IC50 [µM],Structure (SMILES)
1,0.278,"O=S1(=O)CC2(CC(Nc3nccc(-c4sc(C56CC(C5)C6)nc4-c4cccc(NS(=O)(=O)N5CCc6c5cccc6C(F)(F)F)c4F)n3)C2)C1 [Example 42, N-(3-(2-(bicyclo [1.1.1]pentan-1-yl)-5-(2-((2,2-dioxido-2-thiaspiro[3.3]heptan-6-yl)amino)-pyrimidin-4-yl)thiazol-4-yl)-2-fluorophenyl)-4-(trifluoromethyl)-indoline-1-sulfonamide]"
2,0.0271,"CN1CC2CCC(C1)N2c1nc(-c2cccc(NS(=O)(=O)N3CCc4ccc(Cl)cc43)c2F)c(-c2ccnc(NC3CC4(C3)CS(=O)(=O)C4)n2)s1 [Example 43, 6-chloro-N-(3-(5-(2-((2,2-dioxido-2-thiaspiro[3.3]heptan-6-yl)amino)-pyrimidin-4-yl)-2-(3-methyl-3,8-diazabicyclo [3.2.1]octan-8-yl)thiazol-4-yl)-2-fluorophenyl) indoline-1-sulfonamide]"
3,0.056,"CN1CC2CCC(C1)N2c1nc(-c2cccc(NS(=O)(=O)N3CCc4ccc(C(F)(F)F)cc43)c2F)c(-c2ccnc(NC3CC4(C3)CS(=O)(=O)C4)n2)s1 [Example 44, N-(3-(5-(2-((2,2-dioxido-2-thiaspiro-[3.3]heptan-6-yl)amino)pyrimidin-4-yl)-2-(3-methyl-3,8-diazabicyclo[3.2.1]-octan-8-yl)thiazol-4-yl)-2-fluorophenyl)-6-(trifluoromethyl) indoline-1-sulfonamide]"
4,0.314,"O=S1(=O)CC2(CC(Nc3nccc(-c4sc(C56CC(C5)C6)nc4-c4cccc(NS(=O)(=O)N5CCc6c5ccc(F)c6F)c4F)n3)C2)C1 [Example 45, N-(3-(2-(bicyclo [1.1.1]pentan-1-yl)-5-(2-((2,2-dioxido-2-thiaspiro[3.3]heptan-6-yl)amino)-pyrimidin-4-yl)thiazol-4-yl)-2-fluorophenyl)-4,5-difluoroindoline-1-sulfonamide]"
5,0.476,"O=S1(=O)CC2(CC(Nc3nccc(-c4sc(C56CC(C5)C6)nc4-c4cccc(NS(=O)(=O)N5CCc6ccccc6C5)c4F)n3)C2)C1 [Example 46, N-(3-(2-(bicyclo [1.1.1]pentan-1-yl)-5-(2-((2,2-dioxido-2-thiaspiro[3.3]heptan-6-yl)amino)-pyrimidin-4-yl)thiazol-4-yl)-2-fluorophenyl)-3,4-dihydroisoquinoline-2(1H)-sulfonamide]"
6,0.343,"O=S1(=O)CC2(CC(Nc3nccc(-c4sc(C56CC(C5)C6)nc4-c4cccc(NS(=O)(=O)N5CCc6cc(Cl)ccc65)c4F)n3)C2)C1 [Example 47, N-(3-(2-(bicyclo [1.1.1]pentan-1-yl)-5-(2-((2,2-dioxido-2-thiaspiro[3.3]heptan-6-yl)amino)-pyrimidin-4-yl)thiazol-4-yl)-2-fluorophenyl)-5-chloroindoline-1-sulfonamide]"
7,0.139,"O=S1(=O)CC2(CC(Nc3nccc(-c4sc(C56CC(C5)C6)nc4-c4cccc(NS(=O)(=O)N5CCc6ccc(OC(F)F)cc65)c4F)n3)C2)C1 [Example 48, N-(3-(2-(bicyclo [1.1.1]pentan-1-yl)-5-(2-((2,2-dioxido-2-thiaspiro[3.3]heptan-6-yl)amino)-pyrimidin-4-yl)thiazol-4-yl)-2-fluorophenyl)-6-(difluoromethoxy)-indoline-1-sulfonamide]"
8,0.228,"O=S1(=O)CC2(CC(Nc3nccc(-c4sc(C56CC(C5)C6)nc4-c4cccc(NS(=O)(=O)N5CCCc6ccccc6C5)c4F)n3)C2)C1 [Example 50, N-(3-(2-(bicyclo [1.1.1]pentan-1-yl)-5-(2-((2,2-dioxido-2-thiaspiro[3.3]heptan-6-yl)amino)-pyrimidin-4-yl)thiazol-4-yl)-2-fluorophenyl)-1,3,4,5-tetrahydro-2H-benzo[c]azepine-2-sulfonamide]"
9,0.382,"CS(=O)(=O)[C@H]1CC[C@H](Nc2nccc(-c3sc(C45CC(C(F)(F)F)(C4)C5)nc3-c3cccc(NS(=O)(=O)N4CCc5ccc(Cl)cc54)c3F)n2)CC1 [Example 54, 6-chloro-N-(2-fluoro-3-(5-(2-(((1r,4r)-4-(methylsulfonyl)cyclohexyl)amino)pyrimidin-4-yl)-2-(3-(trifluoromethyl)bicyclo-[1.1.1]-pentan-1-yl)thiazol-4-yl)phenyl)-indoline-1-sulfonamide]"
10,0.27,"CS(=O)(=O)[C@H]1CC[C@H](Nc2nccc(-c3sc(C45CC(C(F)(F)F)(C4)C5)nc3-c3cccc(NS(=O)(=O)N4CCc5ccc(C#N)cc54)c3F)n2)CC1 [Example 56, 6-cyano-N-(2-fluoro-3-(5-(2-(((1r,4r)-4-(methylsulfonyl)cyclohexyl)amino)-pyrimidin-4-yl)-2-(3-(trifluoromethyl)-bicyclo[1.1.1]-pentan-1-yl)thiazol-4-yl)phenyl)indoline-1-sulfonamide]"
11,0.0533,"N#Cc1ccc2c(c1)N(S(=O)(=O)Nc1cccc(-c3nc(C45CC(C4)C5)sc3-c3ccnc(N[C@H]4C[C@@H]5CS(=O)(=O)C[C@@H]5C4)n3)c1F)CC2 [Example 59, N-(3-(2-(bicyclo [1.1.1]pentan-1-yl)-5-(2-(((3aR,5s,6aS)-2,2-dioxidohexahydro-1H-cyclopenta[c]thiophen-5-yl)amino)-pyrimidin-4-yl)thiazol-4-yl)-2-fluorophenyl)-6-cyanoindoline-1-sulfonamide]"
